Values joined by “and” are separate entries in the source; they are usually repeats but may differ in a detail not shown here. Equal values may be shown once. Read-outs that look alike come from different tables or passages of the source.
What was measured:
[1] = tested on: schizophrenic patients; conditions: added to conventional therapy; cited from earlier work
[2] = tested on: L-687,414-induced hyperlocomotion; test: Reversal of L-687,414-induced hyperlocomotion in mice; type: in vivo; conditions: for ED50: Mus musculus, po, 1 h, read-out: ED50 of compound alone, L-687,414-induced hyperlocomotion; for reversal of hyperlocomotion induced by L-687,414 (in words): single agents, mice, L-687,414 50 mg/kg
Description: RG1678, [4-(3-Fluoro-5-trifluoromethyl-pyridin-2-yl)-piperazin-1-yl]-[5-methanesulfonyl-2-((S)-2,2,2 trifluoro-1-methyl-ethoxy)-phenyl]-methanone (WO05/014563) and L-687,414, ((3R,4R)-3-amino-1-hydroxy-4-methylpyrrolidin-2-one (Tetrahedron Letters, Vol. 49, issue 42, 2008, 6079-6080) and olanzapine were synthesized according to known methods by the Medicinal Chemistry Department of F. Hoffmann-La Roche, and risperidone was purchased from Sigma. All drugs were dissolved in H2O/0.3% Tween 80 and administered orally in a volume of 10 ml/kg body weight.
Male NMRI mice (20-30 g) supplied from Iffa Credo, Lyon, France, were housed in a vivarium at controlled temperature (20-22° C.) and a 12 hr light/dark cycle (lights on 6:00 a.m. Animals were allowed ad libitum access to food and water. The experimental procedures used in the present study received prior approval from the City of Basel Cantonal Animal Protection Committee based on adherence to federal and local regulations. Behavioral experiments were conducted during the hours of 8:00 a.m. and 2:00 p.m.
A computerized Digiscan 16 Animal Activity Monitoring System (Omnitech Electronics, Columbus, Ohio) was used to quantify locomotor activity. Data were obtained simultaneously from eight Digiscan activity chambers placed in a soundproof room with a 12 hr light/dark cycle. Experiments were performed during the light phase between 06:30 a.m. and 5:00 p.m. Each activity monitoring chamber consisted of a Plexiglas box (41×41×28 cm; W×L×H) with sawdust bedding on the floor surrounded by invisible horizontal and vertical infrared sensor beams. The chambers were divided by a Plexiglas cross providing each mouse with 20×20 cm of moving space. Two animals per box were monitored simultaneously. Chambers were connected to a Digiscan Analyzer linked to a computer that constantly collected the beam status information. The activity detector operates by counting the number of times the beams change from uninterrupted to interrupted status or vice-versa. Records of photocell beam interruptions for individual animals were taken every five minutes over the duration of the experimental session. Mice were first treated with RG1678 at different doses or at a fixed low dose administered p.o. and, 30 minutes later, treated with an antipsychotic at different doses or at a fixed low dose administered p.o. Fifteen minutes after the antipsychotic treatment mice received a s.c. injection of 50 mg/kg of L-687,414. Mice were then transferred from their home cages to the recording chambers for a 15-min habituation phase allowing free exploration of the new environment. Horizontal activity was then recorded for a 60-min time period. The horizontal activity value for each group of animals at a given dose of RG1678 alone or in combination with an antipsychotic (y1) was expressed as % of L-687,414-induced hyperlocomotion and calculated according to the equation (((y1−vehicle horizontal activity)/(L-687,414 horizontal activity−vehicle horizontal activity))×100). For dose-response experiments, the horizontal activity value for each group of animal at a given dose of GlyT1 inhibitor or antipsychotics (y1) was expressed as a percent of L-687,414-induced hyperlocomotion and calculated according to the equation (((y1−vehicle horizontal activity)/(L-687,414 horizontal activity−vehicle horizontal activity))×100). ID50 values, defined as doses of each compound producing 50% inhibition of L-687,414-induced hyperlocomotion, were calculated by linear regression analysis of the dose-response data using an Excel-based computer curve-fitting program.

[3] = tested on: L-687,414-induced hyperlocomotion; conditions: mice; D. Alberati et al 2010; cited from earlier work

## N[C@H](CO)C(=O)O [D-serine]
[1]
  effect on positive, negative and cognitive symptoms: improved positive, negative and cognitive symptoms

## C[C@H](Oc1ccc(S(C)(=O)=O)cc1C(=O)N1CCN(c2ncc(C(F)(F)F)cc2F)CC1)C(F)(F)F [RG1678]
[2]; male NMRI mice, p.o., L-687,414 50 mg/kg s.c., horizontal activity recorded 1 hour
  ED50: 0.76 mg/kg
[2]; RG1678 0.6 mg/kg p.o., male NMRI mice, L-687,414 50 mg/kg s.c.
  reversal of hyperlocomotion induced by RG1678 alone: 19% and 21%
[2]
  reversal of hyperlocomotion induced by L-687,414 (in words): dose-dependently reversed hyperlocomotion

## O=C1CCc2ccc(OCCCCN3CCN(c4cccc(Cl)c4Cl)CC3)cc2N1 [aripiprazole, 7-{4-[4-(2,3-dichlorophenyl)piperazin-1-yl]butoxy}-3,4-dihydroquinolin-2(1H)-one]
[3]
  prevention of hyperlocomotion induced by L-687,414 (assay validation): effective in preventing this behavioral effect in a dose-dependant manner

## NCC(=O)O [glycine]
[1]
  effect on positive, negative and cognitive symptoms: improved positive, negative and cognitive symptoms
[3]
  prevention of hyperlocomotion induced by L-687,414 (assay validation): dose-dependently blocked hyperlocomotion

## O=C(CCCN1CCC(O)(c2ccc(Cl)cc2)CC1)c1ccc(F)cc1 [haloperidol]
[3]
  prevention of hyperlocomotion induced by L-687,414 (assay validation): effective in preventing this behavioral effect in a dose-dependant manner

## Cc1cc2c(s1)Nc1ccccc1N=C2N1CCN(C)CC1 [olanzapine, 2-methyl-4-(4-methyl-1-piperazinyl)-10H-thieno[2,3-b][1.5]benzodiazepine]
[2]
  ED50: 0.06 mg/kg
[2]; olanzapine 0.05 mg/kg p.o., male NMRI mice, L-687,414 50 mg/kg s.c.
  reversal of hyperlocomotion induced by olanzapine alone: 34%

## Cc1nc2n(c(=O)c1CCN1CCC(c3noc4cc(F)ccc34)CC1)CCCC2 [risperidone, 3-[2-[4-(6-fluoro-1,2-benzisoxazol-3-yl)piperidino]ethyl]-2.methyl-6,7,8,9-tetrahydro-4H-pyrido-[1.2-a]pyrimidin-4-one]
[2]
  ED50: 0.023 mg/kg
  reversal of hyperlocomotion induced by L-687,414 (in words): dose-dependently reversed hyperlocomotion
[2]; risperidone 0.005 mg/kg p.o., male NMRI mice, L-687,414 50 mg/kg s.c.
  reversal of hyperlocomotion induced by risperidone alone: 15%
[3]
  prevention of hyperlocomotion induced by L-687,414 (assay validation): effective in preventing this behavioral effect in a dose-dependant manner

## CNCC(=O)O [sarcosine]
[1]
  effect on positive, negative and cognitive symptoms: improved positive, negative and cognitive symptoms

Source: US20120035156A1, “COMBINATION OF GLYT1 COMPOUND WITH ANTIPSYCHOTICS” (priority 2010, published 2012)
